{
  "source": "patent US20050196375A1",
  "about": "“Methods of applying antibiotic compounds to polyurethane biomaterials using textile dyeing technology” (priority 2000, published 2005)",
  "key": {"[1]": {"assay": "not given", "remark": "listed apart in the source"}},
  "data": [
    {"smiles": "O=C(O)c1cn(C2CC2)c2cc(N3CCNCC3)c(F)cc2c1=O", "note": "[cipro, ciprofloxacin]", "values": [
      {"measurement": "exhaustion of cipro on cPU", "setting": "applied concentration 0.5% owf, pH 8.6, 20:1, 45° C., 3.5 hours", "result": "about 60%"},
      {"measurement": "ciprofloxacin taken up by cPU", "setting": "dyeing temperature 55° C., pH 8.6, 20:1, 2% owf, 3.5 hours", "result": 70, "unit": "%"},
      {"measurement": "cipro exhausted on cPU", "setting": "dyeing time 3.5 hours, pH 8.6, 20:1, 2% owf, 45° C.", "result": "about 61%"},
      {"measurement": "standard affinity of cipro for cPU", "setting": "[1]; T 318.15 K, RT ln K", "result": 4.69, "unit": "kJ/mol"},
      {"measurement": "saturation value", "setting": "[1]; as quoted in the description", "result": 0.45, "unit": "g/kg"}
    ]}
  ]
}
